Source: article PMC5580309, “Molecular-scale features that govern the effects of O-glycosylation on a carbohydrate-binding module” (Chemical Science, 2015)
Bridge positions count the residues as written; N and C are the ends. Square brackets hold non-standard residues; d marks the D form. Peptide text beside a SMILES is read from it. * marks the point of attachment. αGalNAc = CC(=O)N[C@@H]1[C@@H](O)[C@@H](O)[C@@H](CO)O[C@@H]1*; X5 = O=P(O)(O)OC[C@H]1O[C@H](*)[C@@H](O)[C@@H](O)[C@@H]1O; αMan = OC[C@H]1O[C@H](*)[C@@H](O)[C@@H](O)[C@@H]1O; hSer = N[C@@H](CCO)C(=O)O

Molecular target: T1, thermolysin (Bacillus thermoproteolyticus, UniProt P00800)
T1 sequence (P00800 233-548): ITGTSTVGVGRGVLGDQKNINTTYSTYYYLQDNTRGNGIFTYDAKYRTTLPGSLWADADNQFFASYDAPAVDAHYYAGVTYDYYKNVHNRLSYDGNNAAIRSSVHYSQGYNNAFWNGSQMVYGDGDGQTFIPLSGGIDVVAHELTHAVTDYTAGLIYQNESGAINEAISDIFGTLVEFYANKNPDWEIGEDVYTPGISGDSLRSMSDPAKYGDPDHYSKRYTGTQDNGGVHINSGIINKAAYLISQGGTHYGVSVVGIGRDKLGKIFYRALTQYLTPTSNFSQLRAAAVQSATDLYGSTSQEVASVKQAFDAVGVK
Assay: Proteolytic stability: half-life to thermolysin degradation
Assay type: in vitro ADME
Conditions: for Change in Half-Life to Thermolysin Degradation: glyco-variant minus its corresponding unglycosylated CBM (e.g. 2-1), *** not used in the correlation plot; for half-life: thermolysin (isolated protease), thermolysin degradation, mean of three trials ± SD, procedures as described previously (ESI ref 18)
Protocol: All error bars reported are standard deviations of data achieved from three separate trials.
cellulose that were determined in accordance with our procedures as described previously 18.
The results are presented as mean of three trials ± SD. *Denotes an averaged value of four trials

Row | SMILES | Change in Half-Life to Thermolysin Degradation [min] | half-life [min]
1 | CC[C@H](C)[C@@H]1NC(=O)CNC(=O)CNC(=O)[C@@H](NC(=O)[C@H](CCC(N)=O)NC(=O)CNC(=O)[C@H](Cc2ccc(O)cc2)NC(=O)[C@H](Cc2c[nH]cn2)NC(=O)[C@H](CO[C@H]2O[C@H](CO)[C@H](O)[C@H](O)[C@H]2NC(C)=O)NC(=O)[C@H](CCC(N)=O)NC(=O)[C@@H](N)[C@@H](C)O)CSSC[C@@H]2NC(=O)[C@H]([C@@H](C)O)NC(=O)[C@H]([C@@H](C)O)NC(=O)CNC(=O)[C@H](CO)NC(=O)[C@H](C)NC(=O)[C@H](CSSC[C@@H](C(=O)N[C@@H](CC(C)C)C(=O)O)NC(=O)[C@H](CCC(N)=O)NC(=O)[C@H](CO)NC(=O)[C@H](Cc3ccc(O)cc3)NC(=O)[C@H](Cc3ccc(O)cc3)NC(=O)[C@@H]3CCCN3C(=O)[C@H](CC(N)=O)NC(=O)[C@H](CC(C)C)NC(=O)[C@H](C(C)C)NC(=O)[C@H](CCC(N)=O)NC2=O)NC(=O)[C@H](C(C)C)NC(=O)[C@H]([C@@H](C)O)NC(=O)[C@@H]2CCCN2C(=O)CNC(=O)[C@H](CO)NC(=O)[C@H](Cc2ccc(O)cc2)NC(=O)CNC1=O [CBM variant 25] (H-TQS(αGalNAc)HYGQCGGIGYSGPTVCASGTTCQVLNPYYSQCL-OH; disulfide 8-25, 19-35) | 9 | 22.8 ± 3
2 | CC[C@H](C)[C@@H]1NC(=O)CNC(=O)CNC(=O)[C@@H](NC(=O)[C@H](CCC(N)=O)NC(=O)CNC(=O)[C@H](C)NC(=O)[C@H](Cc2c[nH]cn2)NC(=O)[C@H](CO[C@H]2O[C@H](CO)[C@@H](O)[C@H](O)[C@@H]2O)NC(=O)[C@H](CCC(N)=O)NC(=O)[C@@H](N)[C@@H](C)O)CSSC[C@@H]2NC(=O)[C@H]([C@@H](C)O)NC(=O)[C@H]([C@@H](C)O)NC(=O)CNC(=O)[C@H](CO)NC(=O)[C@H](C)NC(=O)[C@H](CSSC[C@@H](C(=O)N[C@@H](CC(C)C)C(=O)O)NC(=O)[C@H](CCC(N)=O)NC(=O)[C@H](CO)NC(=O)[C@H](Cc3ccc(O)cc3)NC(=O)[C@H](Cc3ccc(O)cc3)NC(=O)[C@@H]3CCCN3C(=O)[C@H](CC(N)=O)NC(=O)[C@H](CC(C)C)NC(=O)[C@H](C(C)C)NC(=O)[C@H](CCC(N)=O)NC2=O)NC(=O)[C@H](C(C)C)NC(=O)[C@H]([C@@H](C)O)NC(=O)[C@@H]2CCCN2C(=O)CNC(=O)[C@H](CO)NC(=O)[C@H](Cc2ccc(O)cc2)NC(=O)CNC1=O [CBM variant 11] (H-TQS(αMan)HAGQCGGIGYSGPTVCASGTTCQVLNPYYSQCL-OH; disulfide 8-25, 19-35) | 6 | 10.8 ± 1.8
3 | CC[C@H](C)[C@@H]1NC(=O)CNC(=O)CNC(=O)[C@@H](NC(=O)[C@H](CCC(N)=O)NC(=O)CNC(=O)[C@H](Cc2ccc(O)cc2)NC(=O)[C@H](Cc2c[nH]cn2)NC(=O)[C@H](CCO[C@H]2O[C@H](CO)[C@@H](O)[C@H](O)[C@@H]2O)NC(=O)[C@H](CCC(N)=O)NC(=O)[C@@H](N)[C@@H](C)O)CSSC[C@@H]2NC(=O)[C@H]([C@@H](C)O)NC(=O)[C@H]([C@@H](C)O)NC(=O)CNC(=O)[C@H](CO)NC(=O)[C@H](C)NC(=O)[C@H](CSSC[C@@H](C(=O)N[C@@H](CC(C)C)C(=O)O)NC(=O)[C@H](CCC(N)=O)NC(=O)[C@H](CO)NC(=O)[C@H](Cc3ccc(O)cc3)NC(=O)[C@H](Cc3ccc(O)cc3)NC(=O)[C@@H]3CCCN3C(=O)[C@H](CC(N)=O)NC(=O)[C@H](CC(C)C)NC(=O)[C@H](C(C)C)NC(=O)[C@H](CCC(N)=O)NC2=O)NC(=O)[C@H](C(C)C)NC(=O)[C@H]([C@@H](C)O)NC(=O)[C@@H]2CCCN2C(=O)CNC(=O)[C@H](CO)NC(=O)[C@H](Cc2ccc(O)cc2)NC(=O)CNC1=O [CBM variant 19] (H-TQ[hSer](αMan)HYGQCGGIGYSGPTVCASGTTCQVLNPYYSQCL-OH; disulfide 8-25, 19-35) | 2.4 | 20.4 ± 4.2
4 | CC[C@H](C)[C@@H]1NC(=O)CNC(=O)CNC(=O)[C@@H](NC(=O)[C@H](CCC(N)=O)NC(=O)CNC(=O)[C@H](Cc2ccc(O)cc2)NC(=O)[C@H](Cc2c[nH]cn2)NC(=O)[C@H](CO[C@H]2O[C@H](COP(=O)(O)O)[C@@H](O)[C@H](O)[C@@H]2O)NC(=O)[C@H](CCC(N)=O)NC(=O)[C@@H](N)[C@@H](C)O)CSSC[C@@H]2NC(=O)[C@H]([C@@H](C)O)NC(=O)[C@H]([C@@H](C)O)NC(=O)CNC(=O)[C@H](CO)NC(=O)[C@H](C)NC(=O)[C@H](CSSC[C@@H](C(=O)N[C@@H](CC(C)C)C(=O)O)NC(=O)[C@H](CCC(N)=O)NC(=O)[C@H](CO)NC(=O)[C@H](Cc3ccc(O)cc3)NC(=O)[C@H](Cc3ccc(O)cc3)NC(=O)[C@@H]3CCCN3C(=O)[C@H](CC(N)=O)NC(=O)[C@H](CC(C)C)NC(=O)[C@H](C(C)C)NC(=O)[C@H](CCC(N)=O)NC2=O)NC(=O)[C@H](C(C)C)NC(=O)[C@H]([C@@H](C)O)NC(=O)[C@@H]2CCCN2C(=O)CNC(=O)[C@H](CO)NC(=O)[C@H](Cc2ccc(O)cc2)NC(=O)CNC1=O [CBM variant 20] (H-TQS(X5)HYGQCGGIGYSGPTVCASGTTCQVLNPYYSQCL-OH; disulfide 8-25, 19-35) | 20.4 | 34.2 ± 3.6
5 | CC[C@H](C)[C@@H]1NC(=O)CNC(=O)CNC(=O)[C@@H](NC(=O)[C@H](CCC(N)=O)NC(=O)CNC(=O)[C@H](C)NC(=O)[C@H](Cc2c[nH]cn2)NC(=O)[C@H](CO)NC(=O)[C@H](CCC(N)=O)NC(=O)[C@@H](N)[C@@H](C)O)CSSC[C@@H]2NC(=O)[C@H]([C@@H](C)O)NC(=O)[C@H]([C@@H](C)O)NC(=O)CNC(=O)[C@H](CO)NC(=O)[C@H](C)NC(=O)[C@H](CSSC[C@@H](C(=O)N[C@@H](CC(C)C)C(=O)O)NC(=O)[C@H](CCC(N)=O)NC(=O)[C@H](CO)NC(=O)[C@H](Cc3ccc(O)cc3)NC(=O)[C@H](Cc3ccc(O)cc3)NC(=O)[C@@H]3CCCN3C(=O)[C@H](CC(N)=O)NC(=O)[C@H](CC(C)C)NC(=O)[C@H](C(C)C)NC(=O)[C@H](CCC(N)=O)NC2=O)NC(=O)[C@H](C(C)C)NC(=O)[C@H]([C@@H](C)O)NC(=O)[C@@H]2CCCN2C(=O)CNC(=O)[C@H](CO)NC(=O)[C@H](Cc2ccc(O)cc2)NC(=O)CNC1=O [CBM variant 10] (H-TQSHAGQCGGIGYSGPTVCASGTTCQVLNPYYSQCL-OH; disulfide 8-25, 19-35) | – | 4.8 ± 1.2
6 | CC[C@H](C)[C@@H]1NC(=O)CNC(=O)CNC(=O)[C@@H](NC(=O)[C@H](CCC(N)=O)NC(=O)CNC(=O)[C@H](Cc2ccc(O)cc2)NC(=O)[C@H](Cc2c[nH]cn2)NC(=O)[C@H](CCO)NC(=O)[C@H](CCC(N)=O)NC(=O)[C@@H](N)[C@@H](C)O)CSSC[C@@H]2NC(=O)[C@H]([C@@H](C)O)NC(=O)[C@H]([C@@H](C)O)NC(=O)CNC(=O)[C@H](CO)NC(=O)[C@H](C)NC(=O)[C@H](CSSC[C@@H](C(=O)N[C@@H](CC(C)C)C(=O)O)NC(=O)[C@H](CCC(N)=O)NC(=O)[C@H](CO)NC(=O)[C@H](Cc3ccc(O)cc3)NC(=O)[C@H](Cc3ccc(O)cc3)NC(=O)[C@@H]3CCCN3C(=O)[C@H](CC(N)=O)NC(=O)[C@H](CC(C)C)NC(=O)[C@H](C(C)C)NC(=O)[C@H](CCC(N)=O)NC2=O)NC(=O)[C@H](C(C)C)NC(=O)[C@H]([C@@H](C)O)NC(=O)[C@@H]2CCCN2C(=O)CNC(=O)[C@H](CO)NC(=O)[C@H](Cc2ccc(O)cc2)NC(=O)CNC1=O [CBM variant 18] (H-TQ[hSer]HYGQCGGIGYSGPTVCASGTTCQVLNPYYSQCL-OH; disulfide 8-25, 19-35) | – | 18 ± 0.6
